Data reported in PubChem BioAssay (NCI).
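Briefly, cells in 96-well plates were exposed to five compound concentrations for 48 h, and endpoints were estimated by linear interpolation. Definition used: TGI = concentration required for complete inhibition of growth.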

Legend:
Assay in all cases: growth of human tumour cells (NCI), 48 h
HT29 colon = test system: HT29 colon
SF-295 CNS = test system: SF-295 CNS
HCT-116 colon = test system: HCT-116 colon
SNB-19 CNS = test system: SNB-19 CNS
786-0 renal = test system: 786-0 renal
UACC-257 melanoma = test system: UACC-257 melanoma
OVCAR-8 ovarian = test system: OVCAR-8 ovarian
TK-10 renal = test system: TK-10 renal
SR leukemia = test system: SR leukemia
KM12 colon = test system: KM12 colon
SN12C renal = test system: SN12C renal
SF-539 CNS = test system: SF-539 CNS
HL-60(TB) leukemia = test system: HL-60(TB) leukemia
DU-145 prostate = test system: DU-145 prostate
PC-3 prostate = test system: PC-3 prostate
MDA-MB-435 = test system: MDA-MB-435
A498 renal = test system: A498 renal
M14 melanoma = test system: M14 melanoma
UO-31 renal = test system: UO-31 renal

## COC(=O)c1ccc(Cc2ccc(C(=O)OC)o2)o1
HT29 colon
  TGI: > 378 µM
SF-295 CNS
  TGI: > 378 µM
HCT-116 colon
  TGI: > 378 µM
SNB-19 CNS
  TGI: > 378 µM
786-0 renal
  TGI: > 378 µM
UACC-257 melanoma
  TGI: > 378 µM
OVCAR-8 ovarian
  TGI: > 378 µM
TK-10 renal
  TGI: > 378 µM
SR leukemia
  TGI: > 378 µM
KM12 colon
  TGI: > 378 µM
SN12C renal
  TGI: > 378 µM
SF-539 CNS
  TGI: > 378 µM
HL-60(TB) leukemia
  TGI: > 378 µM

## CCOC(=O)/C=C1\c2ccccc2C(=O)N1CC(=O)OCC
DU-145 prostate
  TGI: > 100 µM
PC-3 prostate
  TGI: > 100 µM
MDA-MB-435
  TGI: > 100 µM
SF-295 CNS
  TGI: > 100 µM
HCT-116 colon
  TGI: > 100 µM
SNB-19 CNS
  TGI: > 100 µM
786-0 renal
  TGI: > 100 µM
UACC-257 melanoma
  TGI: > 100 µM
OVCAR-8 ovarian
  TGI: > 100 µM
A498 renal
  TGI: > 100 µM
TK-10 renal
  TGI: > 100 µM
KM12 colon
  TGI: > 100 µM
SN12C renal
  TGI: > 100 µM
M14 melanoma
  TGI: > 100 µM
UO-31 renal
  TGI: > 100 µM

## Cc1ccsc1/C=N/Nc1nncc2ccccc12
DU-145 prostate
  TGI: > 100 µM
PC-3 prostate
  TGI: > 100 µM
HT29 colon
  TGI: > 100 µM
MDA-MB-435
  TGI: > 100 µM
SF-295 CNS
  TGI: > 100 µM
HCT-116 colon
  TGI: > 100 µM
SNB-19 CNS
  TGI: > 100 µM
786-0 renal
  TGI: > 100 µM
UACC-257 melanoma
  TGI: > 100 µM
OVCAR-8 ovarian
  TGI: > 100 µM
A498 renal
  TGI: > 100 µM
TK-10 renal
  TGI: > 100 µM
KM12 colon
  TGI: > 100 µM
SN12C renal
  TGI: > 100 µM
M14 melanoma
  TGI: > 100 µM
UO-31 renal
  TGI: > 100 µM

## CSc1nc2[nH]c(=O)c(C)nc2c(=O)[nH]1
HT29 colon
  TGI: > 100 µM
SF-295 CNS
  TGI: > 100 µM
HCT-116 colon
  TGI: > 100 µM
SNB-19 CNS
  TGI: > 100 µM
786-0 renal
  TGI: > 100 µM
UACC-257 melanoma
  TGI: > 100 µM
OVCAR-8 ovarian
  TGI: > 100 µM
A498 renal
  TGI: > 100 µM
TK-10 renal
  TGI: > 100 µM
SR leukemia
  TGI: > 100 µM
KM12 colon
  TGI: > 100 µM
SN12C renal
  TGI: > 100 µM
M14 melanoma
  TGI: > 100 µM
UO-31 renal
  TGI: > 100 µM
HL-60(TB) leukemia
  TGI: > 100 µM

## O=C(O)c1ccccc1/C=N/NC1=NCCCCN1
PC-3 prostate
  TGI: > 100 µM
HT29 colon
  TGI: > 100 µM
MDA-MB-435
  TGI: > 100 µM
SF-295 CNS
  TGI: > 100 µM
HCT-116 colon
  TGI: > 100 µM
SNB-19 CNS
  TGI: > 100 µM
786-0 renal
  TGI: > 100 µM
UACC-257 melanoma
  TGI: > 100 µM
OVCAR-8 ovarian
  TGI: > 100 µM
A498 renal
  TGI: > 100 µM
TK-10 renal
  TGI: > 100 µM
SR leukemia
  TGI: > 100 µM
KM12 colon
  TGI: > 100 µM
M14 melanoma
  TGI: > 100 µM
SF-539 CNS
  TGI: > 100 µM
UO-31 renal
  TGI: > 100 µM
HL-60(TB) leukemia
  TGI: > 100 µM

## Cc1c2c(n(CCN(C)C)c1C)NN=C(C#N)S2(=O)=O
DU-145 prostate
  TGI: > 100 µM
PC-3 prostate
  TGI: > 100 µM
HT29 colon
  TGI: > 100 µM
MDA-MB-435
  TGI: > 100 µM
HCT-116 colon
  TGI: > 100 µM
SNB-19 CNS
  TGI: > 100 µM
786-0 renal
  TGI: > 100 µM
UACC-257 melanoma
  TGI: > 100 µM
OVCAR-8 ovarian
  TGI: > 100 µM
TK-10 renal
  TGI: > 100 µM
KM12 colon
  TGI: > 100 µM
SN12C renal
  TGI: > 100 µM
M14 melanoma
  TGI: > 100 µM
SF-539 CNS
  TGI: > 100 µM
UO-31 renal
  TGI: > 100 µM

## COc1cc(/C=C2/C(=O)N(C(=O)c3ccc(Cl)cc3)N=C2C)cc(OC)c1OC
HT29 colon
  TGI: > 100 µM
SF-295 CNS
  TGI: > 100 µM
HCT-116 colon
  TGI: > 100 µM
SNB-19 CNS
  TGI: > 100 µM
786-0 renal
  TGI: > 100 µM
UACC-257 melanoma
  TGI: > 100 µM
OVCAR-8 ovarian
  TGI: > 100 µM
A498 renal
  TGI: > 100 µM
TK-10 renal
  TGI: > 100 µM
KM12 colon
  TGI: > 100 µM
SN12C renal
  TGI: > 100 µM
M14 melanoma
  TGI: > 100 µM
SF-539 CNS
  TGI: > 100 µM
UO-31 renal
  TGI: > 100 µM
HL-60(TB) leukemia
  TGI: > 100 µM

## COc1cc2c(cc1OC)C(=O)C(C1=C(SC(=N)N)C(=O)c3cc(OC)c(OC)cc31)C2 (stereo unspecified)
HT29 colon
  TGI: > 100 µM
SF-295 CNS
  TGI: > 100 µM
HCT-116 colon
  TGI: > 100 µM
SNB-19 CNS
  TGI: > 100 µM
786-0 renal
  TGI: > 100 µM
UACC-257 melanoma
  TGI: > 100 µM
OVCAR-8 ovarian
  TGI: > 100 µM
SR leukemia
  TGI: > 100 µM
KM12 colon
  TGI: > 100 µM
SN12C renal
  TGI: > 100 µM
M14 melanoma
  TGI: > 100 µM
SF-539 CNS
  TGI: > 100 µM
UO-31 renal
  TGI: > 100 µM

## [N-]=[N+]=NC(CBr)c1cn([C@H]2C[C@H](O)[C@@H](CO)O2)c(=O)[nH]c1=O (stereo partly specified)
HT29 colon
  TGI: > 100 µM
SF-295 CNS
  TGI: > 100 µM
HCT-116 colon
  TGI: > 100 µM
SNB-19 CNS
  TGI: > 100 µM
786-0 renal
  TGI: > 100 µM
OVCAR-8 ovarian
  TGI: > 100 µM
TK-10 renal
  TGI: > 100 µM
SR leukemia
  TGI: > 100 µM
KM12 colon
  TGI: > 100 µM
SN12C renal
  TGI: > 100 µM
M14 melanoma
  TGI: > 100 µM
SF-539 CNS
  TGI: > 100 µM
UO-31 renal
  TGI: > 100 µM
HL-60(TB) leukemia
  TGI: > 100 µM

## CCOC(=O)c1ccc(-n2c(SCC)nc3sc(C)c(C)c3c2=O)cc1
HT29 colon
  TGI: > 100 µM
SF-295 CNS
  TGI: > 100 µM
HCT-116 colon
  TGI: > 100 µM
SNB-19 CNS
  TGI: > 100 µM
786-0 renal
  TGI: > 100 µM
UACC-257 melanoma
  TGI: > 100 µM
OVCAR-8 ovarian
  TGI: > 100 µM
A498 renal
  TGI: > 100 µM
TK-10 renal
  TGI: > 100 µM
SR leukemia
  TGI: > 100 µM
KM12 colon
  TGI: > 100 µM
SN12C renal
  TGI: > 100 µM
M14 melanoma
  TGI: > 100 µM
SF-539 CNS
  TGI: > 100 µM
UO-31 renal
  TGI: > 100 µM
HL-60(TB) leukemia
  TGI: > 100 µM

## Cn1c2cc(O)cc(O)c2c(=O)c2c([N+](=O)[O-])cccc21
HT29 colon
  TGI: > 100 µM
SF-295 CNS
  TGI: > 100 µM
HCT-116 colon
  TGI: > 100 µM
SNB-19 CNS
  TGI: > 100 µM
786-0 renal
  TGI: > 100 µM
UACC-257 melanoma
  TGI: > 100 µM
OVCAR-8 ovarian
  TGI: > 100 µM
A498 renal
  TGI: > 100 µM
TK-10 renal
  TGI: > 100 µM
SR leukemia
  TGI: > 100 µM
KM12 colon
  TGI: > 100 µM
SN12C renal
  TGI: > 100 µM
M14 melanoma
  TGI: > 100 µM
SF-539 CNS
  TGI: > 100 µM
UO-31 renal
  TGI: > 100 µM
HL-60(TB) leukemia
  TGI: > 100 µM

## O=c1cc(-c2ccccc2)oc2cc(OCCSCCCCCCCCCCSCCOc3ccc4c(=O)cc(-c5ccccc5)oc4c3)ccc12
HT29 colon
  TGI: > 100 µM
SF-295 CNS
  TGI: > 100 µM
HCT-116 colon
  TGI: > 100 µM
SNB-19 CNS
  TGI: > 100 µM
786-0 renal
  TGI: > 100 µM
UACC-257 melanoma
  TGI: > 100 µM
OVCAR-8 ovarian
  TGI: > 100 µM
TK-10 renal
  TGI: > 100 µM
SR leukemia
  TGI: > 100 µM
KM12 colon
  TGI: > 100 µM
SN12C renal
  TGI: > 100 µM
M14 melanoma
  TGI: > 100 µM
UO-31 renal
  TGI: > 100 µM
HL-60(TB) leukemia
  TGI: > 100 µM

## COC(=O)[C@@]12OC[C@]34C([C@@H](O)C1O)[C@@]1(C)CC(=O)C(OC(=O)/C=C(/c5ccccc5)C(F)(F)F)=C(C)C1C[C@H]3OC(=O)[C@H](O)[C@H]42 (stereo partly specified)
HT29 colon
  TGI: 46.3 µM
SF-295 CNS
  TGI: 28.1 µM
HCT-116 colon
  TGI: > 50 µM
SNB-19 CNS
  TGI: 23.2 µM
786-0 renal
  TGI: > 50 µM
UACC-257 melanoma
  TGI: > 50 µM
OVCAR-8 ovarian
  TGI: > 50 µM
A498 renal
  TGI: 2.26 µM
TK-10 renal
  TGI: > 50 µM
SR leukemia
  TGI: 19.4 µM
KM12 colon
  TGI: > 50 µM
SN12C renal
  TGI: > 50 µM
M14 melanoma
  TGI: 36.9 µM
SF-539 CNS
  TGI: 13 µM
UO-31 renal
  TGI: > 50 µM
HL-60(TB) leukemia
  TGI: 2.97 µM

## COc1cc([C@@H]2c3cc4c(cc3[C@@H](NC(=O)c3cccc(F)c3)C3COC(=O)[C@@H]32)OCO4)cc(OC)c1O (stereo partly specified)
HT29 colon
  TGI: 15.4 µM
SF-295 CNS
  TGI: 26.8 µM
HCT-116 colon
  TGI: 13.8 µM
SNB-19 CNS
  TGI: 14.2 µM
786-0 renal
  TGI: 2.26 µM
UACC-257 melanoma
  TGI: 58.1 µM
OVCAR-8 ovarian
  TGI: 16.1 µM
A498 renal
  TGI: 4.91 µM
TK-10 renal
  TGI: 17.1 µM
KM12 colon
  TGI: 7.2 µM
SN12C renal
  TGI: 2.73 µM
M14 melanoma
  TGI: 6.72 µM
SF-539 CNS
  TGI: 1.7 µM
UO-31 renal
  TGI: 11.2 µM
HL-60(TB) leukemia
  TGI: 2.3 µM

## C=CCN(C)CN(C)c1nc(N(C)C)nc(N(C)C)n1
HT29 colon
  TGI: > 100 µM
SF-295 CNS
  TGI: > 100 µM
HCT-116 colon
  TGI: > 100 µM
SNB-19 CNS
  TGI: > 100 µM
786-0 renal
  TGI: > 100 µM
UACC-257 melanoma
  TGI: > 100 µM
OVCAR-8 ovarian
  TGI: > 100 µM
A498 renal
  TGI: > 100 µM
TK-10 renal
  TGI: > 100 µM
SR leukemia
  TGI: > 100 µM
KM12 colon
  TGI: > 100 µM
SN12C renal
  TGI: > 100 µM
M14 melanoma
  TGI: > 100 µM
SF-539 CNS
  TGI: > 100 µM
UO-31 renal
  TGI: > 100 µM
HL-60(TB) leukemia
  TGI: 48.7 µM
